# US11000033B2, “Ketone or oxime compound, and herbicide” (NISSAN CHEMICAL CORPORATION, priority 2014, dated 2021)
# Experiments:
# Assay type in all cases: in vivo
# transplanted rice plant = test: Test Example 1: effect on crop, application before weed generation in submerged conditions (symbol a); conditions: application herbicide amount 320 g/ha
# In short: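 Alluvial soil pots flooded to 4 cm water, sown with Echinochloa oryzacola, Scirpus juncoides and Monochoria vaginalis, then transplanted with 2.5 leaf stage rice seedlings; pre-emergence application. Greenhouse 25° C. to 30° C.; scored 0–5 by herbicidal ratio 3 weeks after application.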
# [1] = test system: Echinochloa oryzacola Vasing.; test: Test Example 2: herbicidal activity, application during weed generation in submerged conditions (symbol A); conditions: Table 23; application herbicide amount 320 g/ha; grade 0-5 by criteria of Test Example 1
# In short: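 Alluvial soil in pots was flooded to a 4 cm water depth and sown with a mix of the three weed species, then grown in a greenhouse at 25° C. to 30° C. At the one- to two-leaf stage, an emulsifiable formulation diluted in water to a set dose was applied to the water surface. Effects were scored visually 3 weeks later.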
# Leptochloa chinensis = test: Test Example 3: herbicidal effect by foliage application, Wagner pot (symbol D); conditions: application herbicide amount 320 g/ha
# In short: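 Weeds and rice were sown in alluvial soil under 0.1–0.5 cm of standing water and grown for 14 days in a 25–30 °C greenhouse. An emulsion of the compound, diluted in water to a set dose, was sprayed evenly onto the foliage. Effect was scored against fixed criteria 3 weeks after treatment.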
# Digitaria ciliaris = test: Test Example 4: herbicidal effect by soil treatment (symbol F); conditions: application herbicide amount 320 g/ha
# In short: (§1)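 Seeds were sown in sterilized diluvial soil, covered with about 1.5 cm of soil, and the soil surface was sprayed with a water-diluted emulsion of the compound at a predetermined rate. Plants grew in a greenhouse at 25° C. to 30° C.; effects were scored visually 3 weeks after application.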
# [2] = test system: Echinochloa crus-galli var. crus-galli; test: Test Example 4: herbicidal effect by soil treatment (symbol H); conditions: application herbicide amount 320 g/ha
# In short: as §1
# Avena fatua [3] = test: Test Example 4: herbicidal effect by soil treatment (symbol I); conditions: application herbicide amount 320 g/ha
# In short: as §1
# Lolium multiflorum Lam. = test: Test Example 4: herbicidal effect by soil treatment (symbol K); conditions: application herbicide amount 320 g/ha
# In short: as §1
# Chenopodium album [4] = test: Test Example 4: herbicidal effect by soil treatment (symbol O); conditions: application herbicide amount 320 g/ha
# In short: as §1
# Veronica persica [5] = test: Test Example 4: herbicidal effect by soil treatment (symbol R); conditions: application herbicide amount 320 g/ha
# In short: as §1
# Setaria viridis = test: Test Example 5: herbicidal effect by foliage application, plastic box (symbol G); conditions: 320 g/ha, 3 weeks after application
# In short: (§2)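 Sowing in sterilized diluvial soil, 14 days' greenhouse growth at 25° C. to 30° C., then uniform small-sprayer foliar application of aqueous emulsion dilution; plants scored three weeks afterwards.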
# Avena fatua [6] = test: Test Example 5: herbicidal effect by foliage application, plastic box (symbol I); conditions: 320 g/ha, 3 weeks after application
# In short: as §2
# Chenopodium album [7] = test: Test Example 5: herbicidal effect by foliage application, plastic box (symbol O); conditions: 320 g/ha, 3 weeks after application
# In short: as §2
# Veronica persica [8] = test: Test Example 5: herbicidal effect by foliage application, plastic box (symbol R); conditions: 320 g/ha, 3 weeks after application
# In short: as §2
# corn = test: Test Example 5: effect on crop by foliage application, plastic box (symbol c); conditions: 320 g/ha, 3 weeks after application
# In short: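 Seeds were sown in spots in sterilized diluvial soil held in a plastic box 21 cm × 13 cm × 7 cm deep, covered with about 1.5 cm of soil, and grown in a greenhouse at 25° C. to 30° C.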
compound,measurement,setting,value
COc1cc(C)c(C2=C(O)CC(CC(C)=O)C2=O)c(C)c1 (centres unmarked) [7-020],"Effect grade on crop, a: transplanted rice plant",transplanted rice plant,2 (Herbicidal ratio of 20% or higher and lower than 40%)
same,"Herbicidal effect grade, A: Echinochloa oryzacola Vasing.",[1],1 (Herbicidal ratio of 5% or higher and lower than 20%)
same,"herbicidal effect on D (Leptochloa chinensis), grade 0-5",Leptochloa chinensis,5 (Herbicidal ratio of 90% or more (almost completely withered))
same,"Herbicidal effect grade, F: Digitaria ciliaris",Digitaria ciliaris,3 (Herbicidal ratio of 40% or higher and lower than 70%)
same,"Herbicidal effect grade, H: Echinochloa crus-galli var. crus-galli",[2],0 (Herbicidal ratio of 5% or lower (almost no effect))
same,"Herbicidal effect grade, I: Avena fatua",Avena fatua [3],0 (Herbicidal ratio of 5% or lower (almost no effect))
same,"Herbicidal effect grade, K: Lolium multiflorum Lam.",Lolium multiflorum Lam.,3 (Herbicidal ratio of 40% or higher and lower than 70%)
same,"Herbicidal effect grade, O: Chenopodium album",Chenopodium album [4],0 (Herbicidal ratio of 5% or lower (almost no effect))
same,"Herbicidal effect grade, R: Veronica persica",Veronica persica [5],0 (Herbicidal ratio of 5% or lower (almost no effect))
same,"G: Setaria viridis, herbicidal effect (criteria of Test Example 1)",Setaria viridis,3 (Herbicidal ratio of 40% or higher and lower than 70%)
same,"I: Avena fatua, herbicidal effect (criteria of Test Example 1)",Avena fatua [6],0 (Herbicidal ratio of 5% or lower (almost no effect))
same,"O: Chenopodium album, herbicidal effect (criteria of Test Example 1)",Chenopodium album [7],0 (Herbicidal ratio of 5% or lower (almost no effect))
same,"R: Veronica persica, herbicidal effect (criteria of Test Example 1)",Veronica persica [8],0 (Herbicidal ratio of 5% or lower (almost no effect))
same,"c: corn, effect on crop (criteria of Test Example 1)",corn,0 (Herbicidal ratio of 5% or lower (almost no effect))
CON=C(C)CC1CC(O)=C(c2c(C)cc(-c3cc(F)c(F)c(F)c3)cc2C)C1=O (centres unmarked) [6-104],"Effect grade on crop, a: transplanted rice plant",transplanted rice plant,5 (Herbicidal ratio of 90% or more (almost completely withered))
same,"Herbicidal effect grade, A: Echinochloa oryzacola Vasing.",[1],5 (Herbicidal ratio of 90% or more (almost completely withered))
same,"herbicidal effect on D (Leptochloa chinensis), grade 0-5",Leptochloa chinensis,5 (Herbicidal ratio of 90% or more (almost completely withered))
same,"Herbicidal effect grade, F: Digitaria ciliaris",Digitaria ciliaris,5 (Herbicidal ratio of 90% or more (almost completely withered))
same,"Herbicidal effect grade, H: Echinochloa crus-galli var. crus-galli",[2],5 (Herbicidal ratio of 90% or more (almost completely withered))
same,"Herbicidal effect grade, I: Avena fatua",Avena fatua [3],4 (Herbicidal ratio of 70% or higher and lower than 90%)
same,"Herbicidal effect grade, K: Lolium multiflorum Lam.",Lolium multiflorum Lam.,1 (Herbicidal ratio of 5% or higher and lower than 20%)
same,"Herbicidal effect grade, O: Chenopodium album",Chenopodium album [4],4 (Herbicidal ratio of 70% or higher and lower than 90%)
same,"Herbicidal effect grade, R: Veronica persica",Veronica persica [5],4 (Herbicidal ratio of 70% or higher and lower than 90%)
same,"G: Setaria viridis, herbicidal effect (criteria of Test Example 1)",Setaria viridis,5 (Herbicidal ratio of 90% or more (almost completely withered))
same,"I: Avena fatua, herbicidal effect (criteria of Test Example 1)",Avena fatua [6],5 (Herbicidal ratio of 90% or more (almost completely withered))
same,"O: Chenopodium album, herbicidal effect (criteria of Test Example 1)",Chenopodium album [7],4 (Herbicidal ratio of 70% or higher and lower than 90%)
same,"R: Veronica persica, herbicidal effect (criteria of Test Example 1)",Veronica persica [8],4 (Herbicidal ratio of 70% or higher and lower than 90%)
same,"c: corn, effect on crop (criteria of Test Example 1)",corn,5 (Herbicidal ratio of 90% or more (almost completely withered))
CC(=O)CC1CC(O)=C(c2c(C)cc(OCc3ccccc3)cc2C)C1=O (centres unmarked) [7-018],"Effect grade on crop, a: transplanted rice plant",transplanted rice plant,2 (Herbicidal ratio of 20% or higher and lower than 40%)
same,"Herbicidal effect grade, A: Echinochloa oryzacola Vasing.",[1],1 (Herbicidal ratio of 5% or higher and lower than 20%)
same,"herbicidal effect on D (Leptochloa chinensis), grade 0-5",Leptochloa chinensis,5 (Herbicidal ratio of 90% or more (almost completely withered))
same,"Herbicidal effect grade, F: Digitaria ciliaris",Digitaria ciliaris,3 (Herbicidal ratio of 40% or higher and lower than 70%)
same,"Herbicidal effect grade, H: Echinochloa crus-galli var. crus-galli",[2],0 (Herbicidal ratio of 5% or lower (almost no effect))
same,"Herbicidal effect grade, I: Avena fatua",Avena fatua [3],0 (Herbicidal ratio of 5% or lower (almost no effect))
same,"Herbicidal effect grade, K: Lolium multiflorum Lam.",Lolium multiflorum Lam.,0 (Herbicidal ratio of 5% or lower (almost no effect))
same,"Herbicidal effect grade, O: Chenopodium album",Chenopodium album [4],0 (Herbicidal ratio of 5% or lower (almost no effect))
same,"Herbicidal effect grade, R: Veronica persica",Veronica persica [5],0 (Herbicidal ratio of 5% or lower (almost no effect))
same,"G: Setaria viridis, herbicidal effect (criteria of Test Example 1)",Setaria viridis,4 (Herbicidal ratio of 70% or higher and lower than 90%)
same,"I: Avena fatua, herbicidal effect (criteria of Test Example 1)",Avena fatua [6],0 (Herbicidal ratio of 5% or lower (almost no effect))
same,"O: Chenopodium album, herbicidal effect (criteria of Test Example 1)",Chenopodium album [7],0 (Herbicidal ratio of 5% or lower (almost no effect))
same,"R: Veronica persica, herbicidal effect (criteria of Test Example 1)",Veronica persica [8],0 (Herbicidal ratio of 5% or lower (almost no effect))
same,"c: corn, effect on crop (criteria of Test Example 1)",corn,1 (Herbicidal ratio of 5% or higher and lower than 20%)
CC(=O)CC1CC(O)=C(c2c(C)cc(-c3ccccn3)cc2C)C1=O (centres unmarked) [7-012],"Effect grade on crop, a: transplanted rice plant",transplanted rice plant,1 (Herbicidal ratio of 5% or higher and lower than 20%)
same,"Herbicidal effect grade, A: Echinochloa oryzacola Vasing.",[1],3 (Herbicidal ratio of 40% or higher and lower than 70%)
same,"herbicidal effect on D (Leptochloa chinensis), grade 0-5",Leptochloa chinensis,5 (Herbicidal ratio of 90% or more (almost completely withered))
same,"Herbicidal effect grade, F: Digitaria ciliaris",Digitaria ciliaris,5 (Herbicidal ratio of 90% or more (almost completely withered))
same,"Herbicidal effect grade, H: Echinochloa crus-galli var. crus-galli",[2],5 (Herbicidal ratio of 90% or more (almost completely withered))
same,"Herbicidal effect grade, I: Avena fatua",Avena fatua [3],0 (Herbicidal ratio of 5% or lower (almost no effect))
same,"Herbicidal effect grade, K: Lolium multiflorum Lam.",Lolium multiflorum Lam.,2 (Herbicidal ratio of 20% or higher and lower than 40%)
same,"Herbicidal effect grade, O: Chenopodium album",Chenopodium album [4],0 (Herbicidal ratio of 5% or lower (almost no effect))
same,"Herbicidal effect grade, R: Veronica persica",Veronica persica [5],0 (Herbicidal ratio of 5% or lower (almost no effect))
same,"G: Setaria viridis, herbicidal effect (criteria of Test Example 1)",Setaria viridis,5 (Herbicidal ratio of 90% or more (almost completely withered))
same,"I: Avena fatua, herbicidal effect (criteria of Test Example 1)",Avena fatua [6],1 (Herbicidal ratio of 5% or higher and lower than 20%)
same,"O: Chenopodium album, herbicidal effect (criteria of Test Example 1)",Chenopodium album [7],3 (Herbicidal ratio of 40% or higher and lower than 70%)
same,"R: Veronica persica, herbicidal effect (criteria of Test Example 1)",Veronica persica [8],2 (Herbicidal ratio of 20% or higher and lower than 40%)
same,"c: corn, effect on crop (criteria of Test Example 1)",corn,3 (Herbicidal ratio of 40% or higher and lower than 70%)
